Results from ChEMBL document CHEMBL3885861, “Open TG-GATES”.

Species: Rattus norvegicus
Assay: Open TG-GATES - Regimen: Single
Type: toxicity, organism-based, Sprague-Dawley
Design: regimen Single, gender Male, age 6 weeks
Details: in vivo, po, 10 mg/kg, route gavage, dose level High; for APTT / Bas / Eos / Fbg / Hb / Ht / Lym / MCH / MCHC / MCV / Mono / Neu / PT / Plat / RBC / Ret / WBC: tissue Blood; for KIDNEY_L / KIDNEY_R / KIDNEY_TOTAL: tissue Kidney; for LIVER: tissue Liver; for A/G / ALP / ALT / AST / BUN / CRE / Ca / Cl / DBIL / GLC / IP / K / LDH / Na / PL / RALB / TBIL / TC / TG / TP / gamma-GTP: tissue Plasma

CN1C(C(=O)Nc2ccccn2)=C(O)c2sc(Cl)cc2S1(=O)=O [LORNOXICAM] gave a TERMINAL_BW (3 h) of 225.5 g, an APTT (3 h) of 20.6 s and a Bas (3 h) of 0.6%. It also gave an Eos (3 h) of 1%, a Fbg (3 h) of 212.8 mg/dL and a Hb (3 h) of 13.3 g/dL. For the same compound, the Ht (3 h) was 40.2%, the Lym (3 h) was 76% and the MCH (3 h) was 20.9 pg. The MCHC (3 h) was 33.3%, the MCV (3 h) was 63 fL and the Mono (3 h) was 2.8%. It also gave a Neu (3 h) of 19.2%, a PT (3 h) of 11.8 s and a Plat (3 h) of 112.2 x10_4/uL. For the same compound, the RBC (3 h) was 638.8 x10_4/ul, the Ret (3 h) was 7.5% and the WBC (3 h) was 112.4 x10_2/uL. It also gave a KIDNEY_L (3 h) of 1 g, a KIDNEY_R (3 h) of 1 g and a KIDNEY_TOTAL (3 h) of 1.9 g. It also gave an LIVER (3 h) of 10.3 g, an A/G (3 h) of 1.8 and an ALP (3 h) of 965.2 IU/L. It also gave an ALT (3 h) of 42.2 IU/L, an AST (3 h) of 79.2 IU/L and a BUN (3 h) of 13.4 mg/dL. For the same compound, the CRE (3 h) was 0.4 mg/dL, the Ca (3 h) was 10.7 mg/dL and the Cl (3 h) was 104.4 meq/L. It also gave a DBIL (3 h) of 0.074 mg/dL, a GLC (3 h) of 193.6 mg/dL and an IP (3 h) of 9 mg/dL. For the same compound, the K (3 h) was 4.1 meq/L, the LDH (3 h) was 188.8 IU/L and the Na (3 h) was 142.2 meq/L. The PL (3 h) was 139.2 mg/dL, the RALB (3 h) was 3.5 g/dL and the TBIL (3 h) was 0.1 mg/dL. For the same compound, the TC (3 h) was 76.8 mg/dL, the TG (3 h) was 38.2 mg/dL and the TP (3 h) was 5.5 g/dL. The gamma-GTP (3 h) was 0.6 IU/L, the TERMINAL_BW (6 h) was 223.7 g and the APTT (6 h) was 19.5 s. It also gave a Bas (6 h) of 0.6%, an Eos (6 h) of 0.8% and a Fbg (6 h) of 229.2 mg/dL. The Hb (6 h) was 13.2 g/dL, the Ht (6 h) was 39.3% and the Lym (6 h) was 76.8%. The MCH (6 h) was 20.5 pg, the MCHC (6 h) was 33.6% and the MCV (6 h) was 60.9 fL. The Mono (6 h) was 2.8%, the Neu (6 h) was 18.6% and the PT (6 h) was 12.1 s. It also gave a Plat (6 h) of 129.2 x10_4/uL, an RBC (6 h) of 644.8 x10_4/ul and a Ret (6 h) of 6.7%. It also gave a WBC (6 h) of 96.3 x10_2/uL, a KIDNEY_L (6 h) of 1 g and a KIDNEY_R (6 h) of 1 g. The KIDNEY_TOTAL (6 h) was 2 g, the LIVER (6 h) was 9.6 g and the A/G (6 h) was 1.6. It also gave an ALP (6 h) of 989.2 IU/L, an ALT (6 h) of 46.8 IU/L and an AST (6 h) of 78.6 IU/L. For the same compound, the BUN (6 h) was 12.8 mg/dL, the CRE (6 h) was 0.3 mg/dL and the Ca (6 h) was 10.5 mg/dL. The Cl (6 h) was 104.8 meq/L, the DBIL (6 h) was 0.072 mg/dL and the GLC (6 h) was 196.2 mg/dL. The IP (6 h) was 8.6 mg/dL, the K (6 h) was 3.9 meq/L and the LDH (6 h) was 219 IU/L. For the same compound, the Na (6 h) was 141.8 meq/L, the PL (6 h) was 137 mg/dL and the RALB (6 h) was 3.5 g/dL. It also gave a TBIL (6 h) of 0.1 mg/dL, a TC (6 h) of 75.8 mg/dL and a TG (6 h) of 56.4 mg/dL. For the same compound, the TP (6 h) was 5.6 g/dL, the gamma-GTP (6 h) was 1 IU/L and the TERMINAL_BW (9 h) was 221.8 g. For the same compound, the APTT (9 h) was 18.9 s, the Bas (9 h) was 0.4% and the Eos (9 h) was 0.8%. For the same compound, the Fbg (9 h) was 215.6 mg/dL, the Hb (9 h) was 13.2 g/dL and the Ht (9 h) was 39.2%. It also gave a Lym (9 h) of 63.6%, an MCH (9 h) of 21.1 pg and an MCHC (9 h) of 33.7%. For the same compound, the MCV (9 h) was 62.6 fL, the Mono (9 h) was 4.2% and the Neu (9 h) was 30.6%. It also gave a PT (9 h) of 12.5 s, a Plat (9 h) of 113.4 x10_4/uL and an RBC (9 h) of 627.4 x10_4/ul. For the same compound, the Ret (9 h) was 7%, the WBC (9 h) was 97.9 x10_2/uL and the KIDNEY_L (9 h) was 1 g. It also gave a KIDNEY_R (9 h) of 1 g, a KIDNEY_TOTAL (9 h) of 2 g and an LIVER (9 h) of 9.3 g. The A/G (9 h) was 1.7, the ALP (9 h) was 755.2 IU/L and the ALT (9 h) was 35.6 IU/L. It also gave an AST (9 h) of 69.8 IU/L, a BUN (9 h) of 13.8 mg/dL and a CRE (9 h) of 0.3 mg/dL. It also gave a Ca (9 h) of 10.5 mg/dL, a Cl (9 h) of 103.6 meq/L and a DBIL (9 h) of 0.08 mg/dL. It also gave a GLC (9 h) of 188 mg/dL, an IP (9 h) of 9.1 mg/dL and a K (9 h) of 4.1 meq/L. It also gave an LDH (9 h) of 195.6 IU/L, a Na (9 h) of 141.4 meq/L and a PL (9 h) of 130.8 mg/dL. For the same compound, the RALB (9 h) was 3.3 g/dL, the TBIL (9 h) was 0.1 mg/dL and the TC (9 h) was 67.6 mg/dL. For the same compound, the TG (9 h) was 59.2 mg/dL, the TP (9 h) was 5.3 g/dL and the gamma-GTP (9 h) was 1.2 IU/L. For the same compound, the TERMINAL_BW (24 h) was 236.6 g, the APTT (24 h) was 21.2 s and the Bas (24 h) was 0.2%. For the same compound, the Eos (24 h) was 0.4%, the Fbg (24 h) was 261 mg/dL and the Hb (24 h) was 12.8 g/dL. For the same compound, the Ht (24 h) was 38.5%, the Lym (24 h) was 54% and the MCH (24 h) was 20.9 pg. It also gave an MCHC (24 h) of 33.2%, an MCV (24 h) of 63.1 fL and a Mono (24 h) of 4%. It also gave a Neu (24 h) of 39.6%, a PT (24 h) of 12 s and a Plat (24 h) of 119.9 x10_4/uL. For the same compound, the RBC (24 h) was 610.2 x10_4/ul, the Ret (24 h) was 6.5% and the WBC (24 h) was 162.1 x10_2/uL. It also gave a KIDNEY_L (24 h) of 1.1 g, a KIDNEY_R (24 h) of 1.1 g and a KIDNEY_TOTAL (24 h) of 2.2 g. For the same compound, the LIVER (24 h) was 11.6 g, the A/G (24 h) was 1.5 and the ALP (24 h) was 949.2 IU/L. It also gave an ALT (24 h) of 38.6 IU/L, an AST (24 h) of 69.8 IU/L and a BUN (24 h) of 13.4 mg/dL. For the same compound, the CRE (24 h) was 0.4 mg/dL, the Ca (24 h) was 10.4 mg/dL and the Cl (24 h) was 105 meq/L. It also gave a DBIL (24 h) of 0.1 mg/dL, a GLC (24 h) of 203.6 mg/dL and an IP (24 h) of 7.6 mg/dL. For the same compound, the K (24 h) was 4.1 meq/L, the LDH (24 h) was 214.2 IU/L and the Na (24 h) was 141.4 meq/L. The PL (24 h) was 148.2 mg/dL, the RALB (24 h) was 3.1 g/dL and the TBIL (24 h) was 0.2 mg/dL. The TC (24 h) was 74.6 mg/dL, the TG (24 h) was 108.8 mg/dL and the TP (24 h) was 5.1 g/dL. The gamma-GTP (24 h) was 1 IU/L.
